The results in this text go back to patent US20160338971A1, “NANO CO-ENCAPSULATION FOR THE PREVENTION AND TREATMENT OF VARIOUS DISORDERS” (priority 2015, published 2016).

The experiment deals with Human Pancreatic cancer cells (MPanc). The experiment is described as follows: Anti-cancer efficacy in athymic nude mice (subcutaneous pancreatic tumor implant). Type of experiment: in vivo. As to conditions: 10 ug/implant in Matrigel near the tumor implant, tumors excised after 2 weeks, n=6 per group, Control 291 ± 25. The text has this:
Human Pancreatic cancer cells (MPanc) were implanted subcutaneously in nude mice at 1 million cells per site and after tumor growth to 150-200 mm3, animals were implanted with the various Nano composites near by the tumor implant.
The preceding data represents mean tumor weight±Standard Deviation (SD), n=6 per group, after 2 weeks of pancreatic cancer cell implant at 1 million per animals. Nano composites were implanted in a Matrigel near by the tumor implants
In the case of `C=CCSSC=CC[S+]([O-])CC=C` (mixture of isomers) [Ajoene], the “Mean Pancreatic Tumor Weight (mg) ± SD” value came to 188.45 ± 15.6 mg. As to `O=C1O[C@H]2[C@@H]3OC(=O)c4cc(O)c(O)c(O)c4-c4c(O)c(O)c5oc(=O)c6c(c(O)c(O)c7oc(=O)c4c5c76)-c4c(cc(O)c(O)c4O)C(=O)OC[C@H]3OC(O)[C@@H]2OC(=O)c2cc(O)c(O)c(O)c2-c2c1cc(O)c(O)c2O` (mixture of isomers) [Punicalagin], the “Mean Pancreatic Tumor Weight (mg) ± SD” value is reported as 146.44 ± 16.4 mg.

`Oc1ccc(C=Cc2cc(O)cc(O)c2)cc1` [Resveratrol]: the “Mean Pancreatic Tumor Weight (mg) ± SD” value turned out to be 198.44 ± 18.9 mg. `C[S+]([O-])CCCCN=C=S` (centres unmarked) [Sulforaphan]: the “Mean Pancreatic Tumor Weight (mg) ± SD” value was determined as 195.80 ± 21.2 mg. Turning to epigallocatechin-3-gallate [EGCG], the “Mean Pancreatic Tumor Weight (mg) ± SD” value was found to be 145.11 ± 17.8 mg.
